Measurements taken from PMC7642680, “The Nontypeable Haemophilus influenzae Major Adhesin Hia Is a Dual-Function Lectin That Binds to Human-Specific Respiratory Tract Sialic Acid Glycan Receptors” (mBio, 2020).
Read-outs that look alike come from different tables or passages of the source.

What was measured:
[1] = target: T1, Hia (full-length, expressed on E. coli BL21) (Haemophilus influenzae, UniProt Q8GM79); assay: SPR, Hia-expressing BL21 cells immobilised (Biacore C1 chip); format: cell-based; settings: 1x PBS pH 7.4; single-cycle kinetics; whole cells
T1 construct: trimeric autotransporter

[2] = target: T2, Hia (full-length, expressed on E. coli BL21) (Haemophilus influenzae, UniProt Q8GM79, A619R); settings: read-out: 2-3 SLN-Ac; 1x PBS pH 7.4; whole cells
From the text: (§1) SPR, Hia-expressing BL21 cells immobilised (Biacore C1 chip) on Hia (full-length, expressed on E. coli BL21)

[3] = target: Hia (full-length, expressed on E. coli BL21) (Haemophilus influenzae, UniProt Q8GM79, D618K); settings: 1x PBS pH 7.4, whole cells
From the text: as §1

[4] = target: Hia BD1 (binding domain 1) (Haemophilus influenzae, UniProt Q8GM79); assay: SPR, purified BD1 immobilised (Biacore CM5 amine capture); settings: 1x PBS pH 7.4; single-cycle kinetics
[5] = target: T2, Hia (full-length, expressed on E. coli BL21); settings: read-out: NB, OneStep injection at 10 μM, whole cells
From the text: SPR, OneStep injection, Hia-expressing BL21 cells on Hia (full-length, expressed on E. coli BL21)

Compound: CC(=O)N[C@H]1[C@H](O[C@H]2[C@@H](O)[C@@H](CO)O[C@@H](O[C@H]3[C@H](O)[C@@H](O)C(O)O[C@@H]3CO)[C@@H]2O)O[C@H](CO)[C@@H](O[C@@H]2O[C@H](CO)[C@H](O)[C@H](O[C@@]3(C(=O)O)C[C@H](O)[C@@H](NC(C)=O)[C@H]([C@H](O)[C@H](O)CO)O3)[C@H]2O)[C@@H]1O (stereo partly shown) [2-3 Ac-SLNnT]
- Kd [1]: 2.03 ± 1.49 µM

Compound: CC(=O)N[C@H]1[C@H](O[C@H]2[C@@H](O)[C@@H](CO)O[C@@H](O[C@H]3[C@H](O)[C@@H](O)C(O)O[C@@H]3CO)[C@@H]2O)O[C@H](CO)[C@@H](O[C@@H]2O[C@H](CO)[C@H](O)[C@H](O[C@@]3(C(=O)O)C[C@H](O)[C@@H](NC(=O)CO)[C@H]([C@H](O)[C@H](O)CO)O3)[C@H]2O)[C@@H]1O (stereo partly shown) [2-3 Gc-SLNnT]
- Kd [1]: 5.44 ± 1.11 µM

Compound: CC(=O)N[C@H]1[C@H]([C@H](O)[C@H](O)CO)O[C@@](O[C@H]2[C@@H](O)[C@@H](CO)O[C@@H](O[C@H]3[C@H](O)[C@@H](NC(C)=O)C(O)O[C@@H]3CO)[C@@H]2O)(C(=O)O)C[C@@H]1O (stereo partly shown) [2-3 SLN-Ac]
- Kd [2]: 3.04 ± 0.7 µM
- Kd ([3]; read-out: 2-3 SLN-Ac): 0.842 ± 0.178 µM
- Kd [1]: 2.03 ± 0.443 µM

Compound: CC(=O)N[C@H]1C(O)O[C@H](CO)[C@@H](O[C@@H]2O[C@H](CO)[C@H](O)[C@H](O[C@@]3(C(=O)O)C[C@H](O)[C@@H](NC(=O)CO)[C@H]([C@H](O)[C@H](O)CO)O3)[C@H]2O)[C@@H]1O (stereo partly shown) [2-3 SLN-Gc]
- Kd [1]: 10.1 ± 0.32 µM

Compound: CC(=O)N[C@H]1[C@H]([C@H](O)[C@H](O)CO)O[C@](OC[C@H]2O[C@@H](O[C@H]3[C@H](O)[C@@H](NC(C)=O)C(O)O[C@@H]3CO)[C@H](O)[C@@H](O)[C@H]2O)(C(=O)O)C[C@@H]1O (stereo partly shown) [2-6 SLN-Ac]
- Kd [4]: 0.0649 ± 0.0056 µM
- Kd ([3]; read-out: 2-6 SLN-Ac): 0.021 ± 0.001 µM
- Kd [5]: > 10 µM
- Kd [1]: 0.185 ± 0.0599 µM
